Activity calls are given as the source filed them. How the calls were made is not given here.
System: CCRIS mutagenicity, Ames/micronucleus/aberration tests
Assay: CCRIS mutagenicity studies
[1] = Test System: AMES SALMONELLA TYPHIMURIUM, Strain/Indicator: TA98, Metabolic Activation: NONE, Method: STANDARD PLATE
[2] = Test System: AMES SALMONELLA TYPHIMURIUM, Strain/Indicator: TA98, Metabolic Activation: RAT, LIVER, S-9, AROCLOR 1254, Method: STANDARD PLATE
[3] = Test System: AMES SALMONELLA TYPHIMURIUM, Strain/Indicator: TA100, Metabolic Activation: NONE, Method: STANDARD PLATE
[4] = Test System: AMES SALMONELLA TYPHIMURIUM, Strain/Indicator: TA1535, Metabolic Activation: NONE, Method: STANDARD PLATE
[5] = Test System: AMES SALMONELLA TYPHIMURIUM, Strain/Indicator: TA1535, Metabolic Activation: RAT, LIVER, S-9, AROCLOR 1254, Method: STANDARD PLATE
[6] = Test System: AMES SALMONELLA TYPHIMURIUM, Strain/Indicator: TA1537, Metabolic Activation: NONE, Method: STANDARD PLATE
[7] = Test System: AMES SALMONELLA TYPHIMURIUM, Strain/Indicator: TA1537, Metabolic Activation: RAT, LIVER, S-9, AROCLOR 1254, Method: STANDARD PLATE
[8] = Test System: AMES SALMONELLA TYPHIMURIUM, Strain/Indicator: TA1538, Metabolic Activation: NONE, Method: STANDARD PLATE
[9] = Test System: AMES SALMONELLA TYPHIMURIUM, Strain/Indicator: TA1538, Metabolic Activation: RAT, LIVER, S-9, AROCLOR 1254, Method: STANDARD PLATE

Q: For `O=NN1CCC[C@H]1c1cccnc1`, which mutagenic call (Test System: AMES SALMONELLA TYPHIMURIUM, Strain/Indicator: TA98, Metabolic Activation: HAMSTER, LIVER, S-9, AROCLOR 1254, Method: STANDARD PLATE) is on record?
A: inactive; negative

Q: What about the mutagenic call [1] of the same compound?
A: inactive; negative

Q: And the mutagenic call [2]?
A: inactive; negative

Q: And the mutagenic call (Test System: AMES SALMONELLA TYPHIMURIUM, Strain/Indicator: TA100, Metabolic Activation: HAMSTER, LIVER, S-9, AROCLOR 1254, Method: STANDARD PLATE)?
A: inactive; negative

Q: What about the mutagenic call (Test System: AMES SALMONELLA TYPHIMURIUM, Strain/Indicator: TA100, Metabolic Activation: NONE, Method: PREINCUBATION) of the same compound?
A: active; positive

Q: What about the mutagenic call [3] of the same compound?
A: inactive; negative

Q: What about the mutagenic call (Test System: AMES SALMONELLA TYPHIMURIUM, Strain/Indicator: TA100, Metabolic Activation: RABBIT, LUNG, CLARA CELLS, Method: PREINCUBATION) of the same compound?
A: inactive; negative

Q: What about the mutagenic call (Test System: AMES SALMONELLA TYPHIMURIUM, Strain/Indicator: TA100, Metabolic Activation: RABBIT, LUNG, MACROPHAGES, Method: PREINCUBATION) of the same compound?
A: inactive; negative

Q: And the mutagenic call (Test System: AMES SALMONELLA TYPHIMURIUM, Strain/Indicator: TA100, Metabolic Activation: RABBIT, LUNG, S-9, Method: PREINCUBATION)?
A: active; positive

Q: What about the mutagenic call (Test System: AMES SALMONELLA TYPHIMURIUM, Strain/Indicator: TA100, Metabolic Activation: RABBIT, LUNG, TYPE II CELLS, Method: PREINCUBATION) of the same compound?
A: inactive; negative

Q: What about the mutagenic call (Test System: AMES SALMONELLA TYPHIMURIUM, Strain/Indicator: TA100, Metabolic Activation: RAT LIVER S-9, AROCLOR 1254, Method: PREINCUBATION) of the same compound?
A: inactive; negative

Q: And the mutagenic call (Test System: AMES SALMONELLA TYPHIMURIUM, Strain/Indicator: TA1530, Metabolic Activation: RABBIT, LUNG, CLARA CELLS, Method: PREINCUBATION)?
A: inactive; negative

Q: And the mutagenic call (Test System: AMES SALMONELLA TYPHIMURIUM, Strain/Indicator: TA1530, Metabolic Activation: RABBIT, LUNG, MACROPHAGES, Method: PREINCUBATION)?
A: inactive; negative

Q: What about the mutagenic call (Test System: AMES SALMONELLA TYPHIMURIUM, Strain/Indicator: TA1530, Metabolic Activation: RABBIT, LUNG, S-9, Method: PREINCUBATION) of the same compound?
A: active; positive

Q: And the mutagenic call (Test System: AMES SALMONELLA TYPHIMURIUM, Strain/Indicator: TA1530, Metabolic Activation: RABBIT, LUNG, TYPE II CELLS, Method: PREINCUBATION)?
A: inactive; negative

Q: And the mutagenic call (Test System: AMES SALMONELLA TYPHIMURIUM, Strain/Indicator: TA1535, Metabolic Activation: HAMSTER, LIVER, S-9, AROCLOR 1254, Method: STANDARD PLATE)?
A: active; positive

Q: What about the mutagenic call [4] of the same compound?
A: inactive; negative

Q: What about the mutagenic call [5] of the same compound?
A: inactive; negative

Q: And the mutagenic call (Test System: AMES SALMONELLA TYPHIMURIUM, Strain/Indicator: TA1537, Metabolic Activation: HAMSTER, LIVER, S-9, AROCLOR 1254, Method: STANDARD PLATE)?
A: inactive; negative

Q: What about the mutagenic call [6] of the same compound?
A: inactive; negative

Q: And the mutagenic call [7]?
A: inactive; negative

Q: What about the mutagenic call (Test System: AMES SALMONELLA TYPHIMURIUM, Strain/Indicator: TA1538, Metabolic Activation: HAMSTER, LIVER, S-9, AROCLOR 1254, Method: STANDARD PLATE) of the same compound?
A: inactive; negative

Q: What about the mutagenic call [8] of the same compound?
A: inactive; negative

Q: And the mutagenic call [9]?
A: inactive; negative

Q: And the mutagenic call (Test System: AMES SALMONELLA TYPHIMURIUM, Strain/Indicator: TA7004, Metabolic Activation: HAMSTER LIVER S-9, AROCLOR 1254, Method: PREINCUBATION)?
A: inactive; negative

Q: And the mutagenic call (Test System: AMES SALMONELLA TYPHIMURIUM, Strain/Indicator: TA7004, Metabolic Activation: NONE, Method: PREINCUBATION)?
A: active; positive

Q: What about the mutagenic call (Test System: AMES SALMONELLA TYPHIMURIUM, Strain/Indicator: TA7004, Metabolic Activation: RAT LIVER S-9, AROCLOR 1254, Method: PREINCUBATION) of the same compound?
A: inactive; negative

Q: And the mutagenic call (Test System: CHINESE HAMSTER V-79, Strain/Indicator: V-79 (HPRT)/6-THIOGUANINE, Metabolic Activation: RAT, HEPATOCYTES)?
A: inactive; negative

Q: And the mutagenic call (Test System: CHINESE HAMSTER V-79, Strain/Indicator: V-79 (HPRT)/6-THIOGUANINE, Metabolic Activation: RAT, LIVER, S-9, AROCLOR 1254)?
A: inactive; negative

Q: And the mutagenic call (Test System: UDS RABBIT LUNG CLARA CELLS, Strain/Indicator: THY INCORP, Metabolic Activation: NONE, Method: LIQUID SCINTILLATION COUNTING)?
A: inactive; negative

Q: What about the mutagenic call (Test System: UDS RABBIT LUNG MACROPHAGES, Strain/Indicator: THY INCORP, Metabolic Activation: NONE, Method: LIQUID SCINTILLATION COUNTING) of the same compound?
A: inactive; negative

Q: What about the mutagenic call (Test System: UDS RABBIT LUNG TYPE II CELLS, Strain/Indicator: THY INCORP, Metabolic Activation: NONE, Method: LIQUID SCINTILLATION COUNTING) of the same compound?
A: inactive; negative

Q: And the mutagenic call (Test System: UDS RODENT HEPATOCYTES, Strain/Indicator: THY INCORP (NON-S-PHASE), Method: AUTORADIOGRAPHY)?
A: active; positive

Q: For `O=C1C=C2c3ccccc3-c3cccc(c32)C1=O`, which mutagenic call (Test System: AMES SALMONELLA TYPHIMURIUM, Strain/Indicator: TM677, Metabolic Activation: NONE, Method: PREINCUBATION) is on record?
A: active; positive

Q: And the mutagenic call (Test System: AMES SALMONELLA TYPHIMURIUM, Strain/Indicator: TM677, Metabolic Activation: RAT, LIVER, POSTMITOCHONDRIAL SUPERNATANT, AROCLOR 1254, Method: PREINCUBATION)?
A: active; positive

Q: Which results are given for `Nc1ccc(Cl)c(C(F)(F)F)c1`?
A: mutagenic call [1]: inactive; negative; mutagenic call [2]: inactive; negative; mutagenic call [3]: inactive; negative; mutagenic call (Test System: AMES SALMONELLA TYPHIMURIUM, Strain/Indicator: TA100, Metabolic Activation: RAT, LIVER, S-9, AROCLOR 1254, Method: STANDARD PLATE): inactive; negative; mutagenic call [4]: inactive; negative; mutagenic call [5]: inactive; negative; mutagenic call [6]: inactive; negative; mutagenic call [7]: inactive; negative; mutagenic call [8]: inactive; negative; mutagenic call [9]: inactive; negative

Source: PubChem BioAssay AID1259407 (Chemical Carcinogenesis Research Information System (CCRIS), 2018)
